What was measured:
FOXP3 = biological target: T1, FOXP3 (Homo sapiens, UniProt Q9BZS1); assay: FOXP3 function inhibitory activity, NF-κB luciferase reporter in HEK293/NF-κB-RE/FOXP3 cells with TNF-alpha; assay type: cell-based; settings: for Chemiluminescence intensity ratio (HEK293/NF-κB-RE/FOXP3 cells / HEK293/NF-κB-RE cells): DMSO control = 1.0
T1 construct: expressed in transfected cells
T1 sequence (Q9BZS1 1-431): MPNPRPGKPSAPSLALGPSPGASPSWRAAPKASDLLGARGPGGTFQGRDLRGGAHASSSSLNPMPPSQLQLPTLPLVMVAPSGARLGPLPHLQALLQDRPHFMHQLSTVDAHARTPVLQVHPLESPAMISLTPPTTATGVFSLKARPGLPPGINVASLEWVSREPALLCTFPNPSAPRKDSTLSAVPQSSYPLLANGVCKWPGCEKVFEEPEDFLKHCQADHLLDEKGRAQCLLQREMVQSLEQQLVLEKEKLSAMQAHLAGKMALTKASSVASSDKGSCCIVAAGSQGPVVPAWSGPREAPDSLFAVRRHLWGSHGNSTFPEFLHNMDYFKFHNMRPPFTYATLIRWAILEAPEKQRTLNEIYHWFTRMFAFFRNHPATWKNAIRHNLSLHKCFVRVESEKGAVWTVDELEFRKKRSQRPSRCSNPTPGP
Procedure: Into HEK293/NF-κB-RE cells, pcDNA3.1-FOXP3 (Department of Cancer vaccine therapy/Immuno-gene therapy, Mie University Graduate School of Medicine), which is a FOXP3 gene expression vector, was introduced, and the cells were subjected to a selection through culture in a medium containing 0.5 mg/mL G418 for 3 weeks. The obtained single clone was isolated and established as a stable line. For culture, DMEM containing 10% heat inactivated […], 0.2 mg/mL Hygromycin B, and 0.5 mg/mL G418 was used.
A cell suspension of 1.875×10^5 cells/mL was prepared for HEK293/NF-κB-RE/FOXP3 cells and HEK293/NF-κB-RE cells, respectively, using DMEM with 10% heat inactivated FBS and without phenol red (medium for assay). The cell suspension was seeded into a 96 well white microplate (nunc) at 80 μL/well (1.5×10^4 cells/well) and the cells were cultured overnight under the conditions of 37° C. and 5% CO2.
A DMSO solution of a test drug with a concentration of 1000 times the final concentration was diluted 100 times with the medium for assay to prepare a test drug solution with a concentration of 10 times the final concentration (a 10 times concentration test drug solution). To each well into which the cell suspension was seeded, 10 μL of the 10 times concentration test drug solution was added and treatment was carried out under the conditions of 37° C. and 5% CO2 for an hour (10 μL of a 1% DMSO solution was added to the control at this time).
Recombinant Human TNF-alpha (R&D Systems) was made to 100 μg/mL with 0.1% BSA-containing PBS, and was further diluted with the medium for assay to prepare a 3 ng/mL TNF-alpha solution. To each well described above, 10 μL of the 3 ng/mL TNF-alpha solution was added, and stimulation was performed under the conditions of 37° C. and 5% CO2 for 2.5 hours (the final concentration of TNF-alpha: 0.3 ng/mL).
The culture supernatant was removed, and the cells were washed once with 100 μL of the medium for assay. After adding 100 μL of the medium for assay, 50 μL of Steady-Glo (Promega Corporation) was added. The microplate was shaken for 10 minutes on a plate shaker with the light blocked. After shaking, the chemiluminescence intensity was measured by ARVO Light plate reader (Perkin Elmer). It should be noted that each test was carried out three times. The results obtained by using HEK293/NF-κB-RE/FOXP3 cells are shown in FIG. 1(A) and the results obtained by using HEK293/NF-κB-RE cells are shown in FIG. 1(B).
The FOXP3 inhibitory activity was evaluated in the same method as that in Example 1 except that the test drug was changed to epirubicin, pirarubicin, daunorubicin, doxorubicin, or idarubicin. The final concentration of each test drug was 0.01, 0.03, 0.1, 0.3 or 1 μM (only epirubicin and doxorubicin were tested also at 1 μM, and idarubicin was tested only at 0.01 and 0.03 μM).
Furthermore, the chemiluminescence intensity ratio was calculated by the Formula 1 below. The test was carried out three times. Chemiluminescence intensity ratio=(chemiluminescence intensity measured when HEK293/NF-κB-RE/FOXP3 cells were used)/(chemiluminescence intensity measured when HEK293/NF-κB-RE cells were used) [Formula 1] 3. Results

HEK293/NF-κB-RE cells = assay: NF-κB luciferase reporter in HEK293/NF-κB-RE cells without FOXP3, with TNF-alpha; assay type: cell-based, human; settings: epirubicin 0.003-1 μM, TNF-alpha 0.3 ng/mL, FIG. 1(B)
Description: Herein, the activity of inhibiting FOXP3 function can be evaluated by preparing HEK293 cells (HEK293/NF-κB-RE cells) into which a luciferase reporter vector has been stably introduced and cells (HEK293/NF-κB-RE/FOXP3 cells) obtained by stably introducing the FOXP3 gene into the HEK293/NF-κB-RE cells, adding a test drug and TNF-alpha (TNF-α) thereto, followed by culture, and measuring a difference in chemiluminescence intensity in each cell group.
Into a human embryonic kidney-derived cell line HEK293 (RIKEN CELL BANK), pGL4.32 [luc2P/NF-κB-RE/Hygro] (Promega Corporation), which is a luciferase reporter vector, was introduced, and the cells were subjected to a selection through culture in a medium containing 0.2 mg/mL Hygromycin B for 3 weeks. The obtained single clone was isolated and established as a stable line. For culture, DMEM (Dulbecco's Modified Eagle's Medium) containing 10% heat inactivated FBS and 0.2 mg/mL Hygromycin B was used.
A cell suspension of 1.875×10^5 cells/mL was prepared for HEK293/NF-κB-RE/FOXP3 cells and HEK293/NF-κB-RE cells, respectively, using DMEM with 10% heat inactivated FBS and without phenol red (medium for assay). […]
The culture supernatant was removed, and the cells were washed once with 100 μL of the medium for assay. […] After shaking, the chemiluminescence intensity was measured by ARVO Light plate reader (Perkin Elmer). […]

mouse regulatory T cells = assay: Overcoming immunosuppressive action of mouse regulatory T cells: growth of CFSE-stained CD8+ T cells co-cultured with epirubicin-treated CD4+CD25+ T lymphocytes; assay type: cell-based, BALB/c mice; settings: in the presence of regulatory T cells treated with epirubicin at a low dose not showing cytotoxicity, FIG. 2
Procedure: Anti-CD3 antibody (1 μg/mL, manufactured by eBioscience) was added to a 12 well flat-bottom plate and the plate was left to stand at 4° C. overnight, and then washed with RPMI 1640 medium. Spleen was isolated from BALB/c mice, and CD4^+CD25^+ T lymphocytes were isolated using a mouse regulatory T cell isolation kit (manufactured by Miltenyi Biotec) and autoMACS separator (manufactured by Miltenyi Biotec). To the 12 well flat-bottom plate coated with anti-CD3 antibody, seven hundred thousand CD4^+CD25^+ T lymphocytes per well were added, and anti-CD28 antibody (manufactured by eBioscience) and IL-2 (NOVARTIS) were added so that the concentrations were 1 μg/mL and 60 IU/mL, respectively. Next, epirubicin was added at various concentrations and the lymphocytes were cultured in an incubator at 37° C. for 48 hours and then washed with a 10% FBS supplemented RPMI 1640 medium.
Anti-CD3 antibody (1 μg/mL, manufactured by eBioscience) was added to a 96 well flat-bottom plate and the plate was left to stand at 4° C. overnight, and then washed with RPMI 1640 medium. […] The lymphocytes were collected and washed with PBS containing 0.5% BSA, and then stained with anti-CD8-APC antibody (manufactured by eBioscience) and analyzed using FACS Canto II flow cytometer (manufactured by Becton Dickinson).

[1] = system: CD4+FOXP3+ and CD4+FOXP3− tumor-infiltrating lymphocytes; assay: IFN-γ positive cells among tumor-infiltrating lymphocytes of CMS5a tumor-bearing mice; assay type: in vivo, BALB/c mice; settings: epirubicin 0.1, 0.3, 1 mg/kg intravenously on days 3, 5, 7, TIL collected day 8
Procedure: CMS5a cells were transplanted under the skin in the posterodorsal region of female BALB/c mice (8 mice per group) on day 0. […] On day 8, the mice were euthanized and tumors were collected. Using gentle MACS dissociator (manufactured by Miltenyi Biotec) in accordance with the instruction manual, tumor-infiltrating lymphocytes (TIL) were separated from the tumors. The collected cells were seeded into a 24 well plate and stimulated with phorbol 12-myristate 13-acetate (PMA) and ionomycin under the condition of 37° C. for an hour, and then cultured with GolgiPlug (BD Biosciences) for 6 hours. After collecting the cells, the cells were stained with PreCP-CyTM5.5 rat anti-mouse CD4 antibody (manufactured by BD Pharmingen) and V500 rat anti-mouse CD8a antibody (manufactured by BD Horizon) under the condition of 4° C. for 15 minutes. The stained cells were fixed with Fixation/Permeabilization Concentrate and Diluent (1:3, manufactured by eBioscience) under the condition of 4° C. overnight. […] The stained cells were analyzed using FACS Canto II flow cytometer (manufactured by Becton Dickinson).

[2] = test drug concentration 0.01 (μM)
[3] = test drug concentration 0.03 (μM)
[4] = test drug concentration 0.1 (μM)
[5] = test drug concentration 0.3 (μM)

SMILES | Chemiluminescence intensity ratio (HEK293/NF-κB-RE/FOXP3 cells / HEK293/NF-κB-RE cells) (FOXP3; [2]) | Chemiluminescence intensity ratio (HEK293/NF-κB-RE/FOXP3 cells / HEK293/NF-κB-RE cells) (FOXP3; [3]) | Chemiluminescence intensity ratio (HEK293/NF-κB-RE/FOXP3 cells / HEK293/NF-κB-RE cells) (FOXP3; [4]) | Chemiluminescence intensity ratio (HEK293/NF-κB-RE/FOXP3 cells / HEK293/NF-κB-RE cells) (FOXP3; [5]) | FOXP3 inhibitory activity (Example 2, in words) (FOXP3; 0.01-1 μM, Table 2) | inhibition of FOXP3 function (conclusion of Example 1) (FOXP3; FOXP3 cells compared with cells without FOXP3) | chemiluminescence intensity compared to control (FOXP3; HEK293/NF-κB-RE/FOXP3 cells, 0.1 μM) | chemiluminescence intensity compared to control (FOXP3; HEK293/NF-κB-RE/FOXP3 cells, 0.3 or 1 μM) | chemiluminescence intensity (FOXP3; HEK293/NF-κB-RE/FOXP3 cells, epirubicin 0.003-1 μM, TNF-alpha 0.3 ng/mL, FIG. 1(A)) | Chemiluminescence intensity ratio (HEK293/NF-κB-RE/FOXP3 cells / HEK293/NF-κB-RE cells) (FOXP3; test drug concentration 1 (μM)) | chemiluminescence intensity (HEK293/NF-κB-RE cells) | growth rate of CD8+ T cells (mouse regulatory T cells) | proportion of IFN-γ positive cells to CD4+FOXP3+ cells ([1]; FIG. 3(A)) | proportion of IFN-γ positive cells to CD4+FOXP3− cells ([1]; FIG. 3(B))
COc1cccc2c1C(=O)c1c(O)c3c(c(O)c1C2=O)C[C@@](O)(C(C)=O)C[C@@H]3O[C@H]1C[C@H](N)[C@H](O)[C@H](C)O1 [Daunorubicin, daunorubicin] | 1.09 | 1.12 | 1.82 | 2.07 |  |  |  |  |  |  |  |  |  | 
COc1cccc2c1C(=O)c1c(O)c3c(c(O)c1C2=O)C[C@@](O)(C(=O)CO)C[C@@H]3O[C@H]1C[C@H](N)[C@@H](O)[C@H](C)O1 [Epirubicin, epirubicin] | 1.29 | 1.39 | 1.42 | 1.62 | increased in a concentration-dependent manner | selectively inhibited FOXP3 function | significantly high as compared to that in the control at P<0.05 | significantly high as compared to that in the control at P<0.01 | increased in an epirubicin concentration-dependent manner | 2.37 | concentration-dependent changes were not observed | increased in a concentration-dependent manner | increased in a concentration-dependent manner | did not vary
COc1cccc2c1C(=O)c1c(O)c3c(c(O)c1C2=O)C[C@@](O)(C(=O)CO)C[C@@H]3O[C@H]1C[C@H](N)[C@H](O[C@@H]2CCCCO2)[C@H](C)O1 [Pirarubicin, pirarubicin] | 1.03 | 1.08 | 1.53 | 1.50 |  |  |  |  |  |  |  |  |  | 
COc1cccc2c1C(=O)c1c(O)c3c(c(O)c1C2=O)C[C@@](O)(C(=O)CO)C[C@@H]3O[C@H]1C[C@H](N)[C@H](O)[C@H](C)O1 [Doxorubicin, doxorubicin] | 0.97 | 1.08 | 1.14 | 1.29 |  |  |  |  |  | 1.38 |  |  |  | 
CC(=O)[C@]1(O)Cc2c(O)c3c(c(O)c2[C@@H](O[C@H]2C[C@H](N)[C@H](O)[C@H](C)O2)C1)C(=O)c1ccccc1C3=O [Idarubicin, idarubicin] | 1.02 | 1.21 |  |  |  |  |  |  |  |  |  |  |  | 

Reference: patent US11213538B2, “Agent for overcoming immunosuppression and use thereof” (GENERAL INCORPORATED ASSOCIATION PHARMA VALLEY PROJECT …, priority 2016, dated 2022)
